This note sets out measurements from publication PMC6201103, “The Small-Compound Inhibitor K22 Displays Broad Antiviral Activity against Different Members of the Family Flaviviridae and Offers Potential as a Panviral Inhibitor” (Antimicrobial Agents and Chemotherapy, 2018).

The subject of test [1] is ZIKV. In words: Direct effect on virus stability: ZIKV preincubated with K22, then titrated. It is filed as cell-based, Zika virus. The note with it: 2 h at room temperature, increasing K22 concentrations. As to the method: Shortly, the compound was diluted in DMSO to reach the desired concentrations (0, 5, 10, 20, 30, and 40 μM) and incubated with the cells for 2 h prior to infection, during infection, or after a period of 2, 6, 10, 14, 18, 22, or 24 h. […] Next, the inoculum was discarded, the cells were washed with prewarmed PBS, and culture medium was added to the wells. Additionally, in order to analyze the direct effect of K22 on virus stability, ZIKV in DMEM was incubated for 2 h at room temperature with the different K22 concentrations and titrated in 10-fold serial dilution on Vero cells for measurement of virus infectivity as described above.

Test [2] deals with BVDV SuwaNcp. Kind of test: BVDV SuwaNcp replication, qRT-PCR of viral RNA in BT cells. It is filed as cell-based, bovine viral diarrhea virus. (In general: Quantitative PCR measures a nucleic acid by following its amplification.)

By IC50 is commonly meant the concentration that inhibits the measured activity by half. Read a low IC50 as higher potency. `O=C(N/C(=C\c1ccccc1)C(=O)N1CCC(O)(c2ccc(Br)cc2)CC1)c1ccccc1` [K22, (Z)-N-{3-[4-(4-bromophenyl)-4-hydroxypiperidin-1-yl]-3-oxo-1-phenylprop-1-en-2-yl} benzamide]: the “effect of preincubation of ZIKV with K22 on infectivity” value in test [1] is recorded as “does not affect ZIKV infectivity”. The same compound showed an IC50 in test [2] (Bovine viral diarrhea virus isolates and strains, 48 h) of 34.7 µM. Also, in test [2] (qRT-PCR, BT cells), the “K22 concentrations necessary to significantly reduce viral replication of BVDV SuwaNcp” value was at least 40 µM.
